Reference: article PMC8063935, “Amphipathic Peptide Antibiotics with Potent Activity against Multidrug-Resistant Pathogens” (Pharmaceutics, 2021)
≈ marks a conversion by molar mass, not a printed value. Like-named read-outs stand apart in the source and are kept apart here. Where a SMILES comes first, the peptide text is derived from it.

What was measured:
[1] = test system: A. baumannii C222 (tet(X6)); test: microbe, parasite or virus in culture; format: cell-based, Acinetobacter baumannii; details: for IC50: OD600 of micro-broth dilution plates, four-parameter fit
Procedure: (§1) The MICs of all drugs were determined by micro-broth dilution method according to CLSI 2018 guidelines. The bacterial suspension used in the experiment was appropriate 1.5 × 10^6 colony-forming units (CFUs) per mL and mixed with the drug solution in a sterilized 96-well microtiter plate (Corning, New York, USA), then incubated at 37 °C for 16–18 h. MIC value was defined as the minimum drug concentration without visible bacteria. Meanwhile, the density of the bacteria at 600 nm was measured, and the corresponding IC50 was calculated using log (inhibitor) vs. response variable slope (four parameters) in Graphpad Prism version 8.3.0 software (San Diego, CA, USA). To assess the role of ROS production in the antibacterial activity of WW307, increasing concentrations of N-acetylcysteine (NAC) from 0 to 5 mM were added in culture medium, followed by MICs test.

MRSA T144 = test: microbe, parasite or virus in culture; format: cell-based, Staphylococcus aureus; details: for MIC: micro-broth dilution, CLSI 2018, ~1.5 × 10^6 CFUs per mL, 37 °C, 16–18 h; for IC50: OD600 of micro-broth dilution plates, four-parameter fit
Procedure: as §1

S. aureus G16 (RIF^R) = test: microbe, parasite or virus in culture; format: cell-based, Staphylococcus aureus; details: for IC50: OD600 of micro-broth dilution plates, four-parameter fit
Procedure: as §1

E. coli CP131 (mcr-3) = test: MIC / IC50, micro-broth dilution; format: cell-based, Escherichia coli; details: for IC50: OD600 of micro-broth dilution plates, four-parameter fit
Procedure: as §1

E. coli G6 (blaNDM-5) = test: MIC / IC50, micro-broth dilution; format: cell-based, Escherichia coli; details: for MIC: micro-broth dilution, CLSI 2018, ~1.5 × 10^6 CFUs per mL, 37 °C, 16–18 h; for IC50: OD600 of micro-broth dilution plates, four-parameter fit
Procedure: as §1

E. coli C3 (blaNDM-1) = test: MIC / IC50, micro-broth dilution; format: cell-based, Escherichia coli; details: for MIC: micro-broth dilution, CLSI 2018, ~1.5 × 10^6 CFUs per mL, 37 °C, 16–18 h; for IC50: OD600 of micro-broth dilution plates, four-parameter fit
Procedure: as §1

[2] = test system: P. cibarius HNCF44W (blaNDM-1 + tet(X6)); test: MIC / IC50, micro-broth dilution; format: cell-based; details: for MIC: micro-broth dilution, CLSI 2018, ~1.5 × 10^6 CFUs per mL, 37 °C, 16–18 h; for IC50: OD600 of micro-broth dilution plates, four-parameter fit
Procedure: as §1

[3] = test system: E. coli B2 (mcr-1 + blaNDM-5); test: microbe, parasite or virus in culture; format: cell-based, Escherichia coli; details: for IC50: OD600 of micro-broth dilution plates, four-parameter fit
Procedure: as §1

E. coli 1F28 (tet(X4)) = test: microbe, parasite or virus in culture; format: cell-based, Escherichia coli; details: for MIC: micro-broth dilution, CLSI 2018, ~1.5 × 10^6 CFUs per mL, 37 °C, 16–18 h; for IC50: OD600 of micro-broth dilution plates, four-parameter fit
Procedure: as §1

E. coli G92 (mcr-1) = test: microbe, parasite or virus in culture; format: cell-based, Escherichia coli; details: for IC50: OD600 of micro-broth dilution plates, four-parameter fit
Procedure: as §1

Sheep RBCs = test: Hemolysis analysis; format: cell-based; details: 8% sheep red blood cell suspension, 37 °C, 1 h, released hemoglobin at 576 nm; PBS negative, ddH2O positive control
Procedure: The hemolytic activity on all peptides was evaluated based on previous report. Briefly, fresh Sheep RBCs were washed twice with phosphate buffer (PBS), and then 8% red blood cell suspension was prepared. The increasing concentrations of AMPs and melittin were mixed with 8% red blood cell suspension, respectively, and incubated at 37 °C for 1 h. The sterilized PBS and double-distilled water (ddH2O) were used as blank and positive control, respectively. Afterwards, the supernatant was centrifuged to measure the absorption of released hemoglobin at 576 nm by an Infinite M200 Microplate reader (Tecan, Männedorf, Switzerland). The corresponding hemolysis rate was calculated.

[4] = A. baumannii C222 (tet(X6)), micro-broth dilution, CLSI 2018, ~1.5 × 10^6 CFUs per mL, 37 °C, 16–18 h
[5] = S. aureus G16 (RIF^R), micro-broth dilution, CLSI 2018, ~1.5 × 10^6 CFUs per mL, 37 °C, 16–18 h
[6] = E. coli CP131 (mcr-3), micro-broth dilution, CLSI 2018, ~1.5 × 10^6 CFUs per mL, 37 °C, 16–18 h
[7] = E. coli B2 (mcr-1 + blaNDM-5), micro-broth dilution, CLSI 2018, ~1.5 × 10^6 CFUs per mL, 37 °C, 16–18 h
[8] = E. coli G92 (mcr-1), micro-broth dilution, CLSI 2018, ~1.5 × 10^6 CFUs per mL, 37 °C, 16–18 h
[9] = Staphylococcus aureus, read-out: MIC
[10] = Escherichia coli, read-out: MIC

Compound: colistin
- MIC [1, 4]: <0.125 µg/mL
- MIC (MRSA T144): 16 µg/mL
- MIC (S. aureus G16 (RIF^R); [5]): 1 µg/mL
- MIC (E. coli CP131 (mcr-3); [6]): 4 µg/mL
- MIC (E. coli G6 (blaNDM-5)): 0.5 µg/mL
- MIC (E. coli C3 (blaNDM-1)): <0.125 µg/mL
- MIC [2]: >256 µg/mL
- MIC [3, 7]: 8 µg/mL
- MIC (E. coli 1F28 (tet(X4))): 0.125 µg/mL
- MIC (E. coli G92 (mcr-1); [8]): 4 µg/mL

Compound: CN(C)c1cc(NC(=O)CNC(C)(C)C)c(O)c2c1C[C@H]1C[C@H]3[C@H](N(C)C)C(O)=C(C(N)=O)C(=O)[C@@]3(O)C(O)=C1C2=O [TIG, tigecycline]
- MIC ([1]; Acinetobacter baumannii): 64 µg/mL (≈ 109 µM)
- MIC (MRSA T144; [9]): 0.25 µg/mL (≈ 0.427 µM)
- MIC (S. aureus G16 (RIF^R); Staphylococcus aureus): < 0.0625 µg/mL
- MIC (E. coli CP131 (mcr-3); Escherichia coli, E. coli CP131 (mcr-3), micro-broth dilution, CLSI 2018, ~1.5 × 10^6 CFUs per mL, 37 °C, 16–18 h, read-out: MIC): 2 µg/mL (≈ 3.41 µM)
- MIC (E. coli G6 (blaNDM-5); [10]): 2 µg/mL (≈ 3.41 µM)
- MIC (E. coli C3 (blaNDM-1); [10]): 2 µg/mL (≈ 3.41 µM)
- MIC ([2]; read-out: MIC): 64 µg/mL (≈ 109 µM)
- MIC (E. coli 1F28 (tet(X4)); [10]): 16 µg/mL (≈ 27.3 µM)
- MIC (E. coli G92 (mcr-1); Escherichia coli): 4 µg/mL (≈ 6.83 µM)

Compound: CC[C@H](C)[C@H](NC(=O)CN)C(=O)NCC(=O)N[C@@H](C)C(=O)N[C@H](C(=O)N[C@@H](CC(C)C)C(=O)N[C@@H](CCCCN)C(=O)N[C@H](C(=O)N[C@@H](CC(C)C)C(=O)N[C@H](C(=O)N[C@H](C(=O)NCC(=O)N[C@@H](CC(C)C)C(=O)N1CCC[C@H]1C(=O)N[C@@H](C)C(=O)N[C@@H](CC(C)C)C(=O)N[C@H](C(=O)N[C@@H](CO)C(=O)N[C@@H](Cc1c[nH]c2ccccc12)C(=O)N[C@H](C(=O)N[C@@H](CCCCN)C(=O)N[C@@H](CCCNC(=N)N)C(=O)N[C@@H](CCCCN)C(=O)N[C@@H](CCCNC(=N)N)C(=O)N[C@@H](CCC(N)=O)C(=O)N[C@@H](CCC(N)=O)C(N)=O)[C@@H](C)CC)[C@@H](C)CC)[C@@H](C)O)[C@@H](C)O)C(C)C)C(C)C [Melittin, melittin]
- HL50 (peptide concentration that causes 50% hemolysis) (Sheep RBCs): 14.39 µg/mL
- IC50 ([1]; A. baumannii C222 (tet(X6))): 4.16 µg/mL (≈ 1.46 µM)
- MIC [1, 4]: 8 µg/mL (≈ 2.81 µM)
- IC50 (MRSA T144): 3.54 µg/mL (≈ 1.24 µM)
- MIC (MRSA T144): 4 µg/mL (≈ 1.41 µM)
- IC50 (S. aureus G16 (RIF^R); S. aureus G16 (RIF^R)): 1.19 µg/mL (≈ 0.418 µM)
- MIC (S. aureus G16 (RIF^R); [5]): 2 µg/mL (≈ 0.703 µM)
- IC50 (E. coli CP131 (mcr-3); E. coli CP131 (mcr-3)): 3.39 µg/mL (≈ 1.19 µM)
- MIC (E. coli CP131 (mcr-3); [6]): 4 µg/mL (≈ 1.41 µM)
- IC50 (E. coli G6 (blaNDM-5)): 2.38 µg/mL (≈ 0.836 µM)
- MIC (E. coli G6 (blaNDM-5)): 4 µg/mL (≈ 1.41 µM)
- IC50 (E. coli C3 (blaNDM-1)): 5.03 µg/mL (≈ 1.77 µM)
- MIC (E. coli C3 (blaNDM-1)): 8 µg/mL (≈ 2.81 µM)
- IC50 [2]: 2.39 µg/mL (≈ 0.84 µM)
- MIC [2]: 4 µg/mL (≈ 1.41 µM)
- IC50 ([3]; E. coli B2 (mcr-1 + blaNDM-5)): 4.36 µg/mL
- MIC [3, 7]: 8 µg/mL
- IC50 (E. coli 1F28 (tet(X4))): 2.62 µg/mL (≈ 0.92 µM)
- MIC (E. coli 1F28 (tet(X4))): 4 µg/mL (≈ 1.41 µM)
- IC50 (E. coli G92 (mcr-1); E. coli G92 (mcr-1)): 3.55 µg/mL (≈ 1.25 µM)
- MIC (E. coli G92 (mcr-1); [8]): 4 µg/mL (≈ 1.41 µM)

Compound: C[C@@H](O)[C@H]1C(=O)N2C(C(=O)O)=C(S[C@@H]3CN[C@H](C(=O)N(C)C)C3)[C@H](C)[C@H]12 [MEM, meropenem]
- MIC ([1]; Acinetobacter baumannii): < 0.125 µg/mL
- MIC (MRSA T144; [9]): 1 µg/mL (≈ 2.61 µM)
- MIC (S. aureus G16 (RIF^R); Staphylococcus aureus): 2 µg/mL (≈ 5.22 µM)
- MIC (E. coli CP131 (mcr-3); Escherichia coli): < 0.125 µg/mL
- MIC (E. coli G6 (blaNDM-5); [10]): 64 µg/mL (≈ 167 µM)
- MIC (E. coli C3 (blaNDM-1); [10]): 8 µg/mL (≈ 20.9 µM)
- MIC ([2]; read-out: MIC): > 16 µg/mL
- MIC ([3]; Escherichia coli): 32 µg/mL (≈ 83.4 µM)
- MIC (E. coli 1F28 (tet(X4)); [10]): 0.25 µg/mL (≈ 0.652 µM)
- MIC (E. coli G92 (mcr-1); Escherichia coli): < 0.125 µg/mL

Compound: CC(C)C[C@H](NC(=O)[C@H](Cc1c[nH]c2ccccc12)NC(=O)[C@H](Cc1c[nH]c2ccccc12)NC(=O)[C@@H](N)Cc1c[nH]c2ccccc12)C(=O)N[C@@H](CCCNC(=N)N)C(=O)N[C@@H](CCCNC(=N)N)C(=O)N[C@@H](CCCNC(=N)N)C(=O)N[C@@H](Cc1c[nH]c2ccccc12)C(N)=O [WW304] (H-WWWLRRRW-NH2)
- HL50 (peptide concentration that causes 50% hemolysis) (Sheep RBCs): > 128 µg/mL
- IC50 ([1]; A. baumannii C222 (tet(X6))): 34.74 µg/mL (≈ 25.9 µM)
- MIC [1, 4]: 64 µg/mL (≈ 47.6 µM)
- IC50 (MRSA T144): 4.59 µg/mL (≈ 3.42 µM)
- MIC (MRSA T144): 8 µg/mL (≈ 5.95 µM)
- IC50 (S. aureus G16 (RIF^R); S. aureus G16 (RIF^R)): 2.11 µg/mL (≈ 1.57 µM)
- MIC (S. aureus G16 (RIF^R); [5]): 8 µg/mL (≈ 5.95 µM)
- IC50 (E. coli CP131 (mcr-3); E. coli CP131 (mcr-3)): 18.26 µg/mL (≈ 13.6 µM)
- MIC (E. coli CP131 (mcr-3); [6]): 32 µg/mL (≈ 23.8 µM)
- IC50 (E. coli G6 (blaNDM-5)): 36.04 µg/mL (≈ 26.8 µM)
- MIC (E. coli G6 (blaNDM-5)): 64 µg/mL (≈ 47.6 µM)
- IC50 (E. coli C3 (blaNDM-1)): 34.76 µg/mL (≈ 25.9 µM)
- MIC (E. coli C3 (blaNDM-1)): 64 µg/mL (≈ 47.6 µM)
- IC50 [2]: 33.60 µg/mL (≈ 25 µM)
- MIC [2]: 64 µg/mL (≈ 47.6 µM)
- IC50 ([3]; E. coli B2 (mcr-1 + blaNDM-5)): 36.12 µg/mL
- MIC [3, 7]: 64 µg/mL
- IC50 (E. coli 1F28 (tet(X4))): 18.13 µg/mL (≈ 13.5 µM)
- MIC (E. coli 1F28 (tet(X4))): 32 µg/mL (≈ 23.8 µM)
- IC50 (E. coli G92 (mcr-1); E. coli G92 (mcr-1)): 31.96 µg/mL (≈ 23.8 µM)
- MIC (E. coli G92 (mcr-1); [8]): 64 µg/mL (≈ 47.6 µM)
